Read-outs that look alike come from different tables or passages of the source.
Tests used:
[1] = biological target: T1, HCV RdRp NS5B d21BK (BK strain, genotype 1b) (Hepatitis C virus genotype 1b, UniProt P26663); assay: Hepatitis C polymerase (NS5B) inhibition, radioactive filter assay; assay type: biochemical; conditions: for inhibition at 20 µM: read-out: HCV pol % inh at 20 μM
T1 construct: NS5B from the BK strain (genotype 1b) is expressed in E. coli as a protein in which the 21 C-terminal amino acids are replaced; made in house; host or cells: E. coli
T1 sequence (P26663 2420-2989): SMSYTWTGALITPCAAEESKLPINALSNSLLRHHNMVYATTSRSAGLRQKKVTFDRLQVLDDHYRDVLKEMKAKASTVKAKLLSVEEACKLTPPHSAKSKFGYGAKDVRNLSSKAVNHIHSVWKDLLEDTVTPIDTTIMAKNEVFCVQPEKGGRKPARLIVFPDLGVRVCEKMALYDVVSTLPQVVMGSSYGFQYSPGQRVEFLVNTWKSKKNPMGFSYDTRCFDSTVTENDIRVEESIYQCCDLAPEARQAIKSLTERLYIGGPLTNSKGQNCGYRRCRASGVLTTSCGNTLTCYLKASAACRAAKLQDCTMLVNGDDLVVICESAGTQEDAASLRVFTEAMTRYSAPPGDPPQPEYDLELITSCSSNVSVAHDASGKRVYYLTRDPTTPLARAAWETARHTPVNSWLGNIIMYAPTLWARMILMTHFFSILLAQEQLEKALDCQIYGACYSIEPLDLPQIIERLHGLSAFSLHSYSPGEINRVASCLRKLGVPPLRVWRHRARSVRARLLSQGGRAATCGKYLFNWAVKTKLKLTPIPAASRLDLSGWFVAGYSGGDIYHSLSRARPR
Text: The ability of the compounds of the present invention to inhibit Hepatitis C Polymerase was established by the following experimental procedure:
NS5B from the BK strain (genotype 1b) is expressed in E. coli as a protein in which the 21 C-terminal amino acids are replaced with a short linker and a hexahistidine tag ([…]). The purified protein is mixed with radioactive nucleotides and allowed to replicate a heteropolymeric RNA substrate, primed by an endogenous short hairpin, resulting in an approximately 760 nt product. The radioactive product is captured on a filter and quantitated after removal of the unincorporated nucleotides.
Dilute nucleotides 1:1000 to 10 μM (GTP and CTP) or 1:100 to 100 μM (ATP and UTP) into RNase free water.
(1) Compounds 10 μl at 10 μg/ml in 15% Dimethylsulfoxide (DMSO)
Add 20 μl enzyme mix into each well of the assay plate. Incubate compound and enzyme at room temperature for 15 minutes.
(3) Template Mix—Prepare Ahead
Spin down a tube of RNA (5 μg/tube stored in 75% ethanol and 0.3 M sodium acetate) in a microcentrifuge for 20 minutes at 4° C. One tube is enough for 1-1.5 plates. Remove as much ethanol from the tube as possible by inverting the tube. Be gentle, pellet RNA may not adhere to the tube. Vacuum dry the RNA. Resuspend the RNA by adding 1 ml of DEPC water, close the cap of the tube tightly. To dissolve RNA, incubate RNA solution on ice for ˜60 minutes and gently vortex. Spin briefly to ensure all RNA solution is down to the bottom of the tube before opening cap. Gently transfer RNA solution into a 5 ml or larger tube. Add another 3 ml of DEPC water (total 4 ml of volume).
Add the following volumes of reagents
Add 20 μl template mix per reaction (i.e. 20 ng of pOF per reaction or ˜3 nM). (4) Incubate reaction at room temperature (22-25° C.) for 2 hours. (5) Stop reaction by adding 50 μl of 170 mM EDTA.
Final concentration of EDTA is 85 mM.
(6) Prewet filters of Millipore multiscreen assay plate by adding […] of 0.5 M sodium phosphate buffer, pH 7.0 into each well. Let stand at room temperature for 2-3 minutes.
(7) Place the multiscreen filter plate onto a Millipore Manifold and turn on vacuum to allow buffer to flow through. Turn off vacuum. Transfer 80 μl of the reaction product into each well of the filter plate. Let stand for 2-3 minutes. Turn on vacuum to filter reaction product.
(8) Turn off vacuum. Add 200 μl of 0.5 M sodium phosphate buffer, pH 7.0 into each well to wash filter. Turn on vacuum.
Repeat step (8) three more times.
(9) Remove polypropylene bottom. Spot dry filter at the bottom with paper towel. Air dry filter plate on a bench for 1 hour. Add 40 μl Super Mix scintillant. Seal top of the plate with a tape. Place plate into a Packard carrier or micro-beta carrier.
(10) Count plate using a Packard Topcount or micro-beta counter. Count (for example using Program 10) for ^33P in Top count or ^33P program in micro-beta.
Percent inhibition is calculated after background subtraction as a percent reduction of activity relative to the positive control (average value of the plate excluding the negative controls). For the primary screen hits were chosen as showing ≧75% inhibition.
See. Ferrari et al. 1999. J. Virology 73:1649-1654: “Characterization of soluble Hepatitis C virus RNA-dependent RNA polymerase expressed in E. coli and Takamizawa et all 1991” and J. Virology 65:1105-1113: “Structure and characterization of the Hepatitis C virus genome isolated from human carriers,” both references are hereby incorporated by reference in their entireties, specifically methods of testing inhibition of Hepatitis C Polymerase with test compounds.

[2] = U.S. Pat. No. 4,021,451; cited from earlier work

SMILES	IC50 [1]	inhibition at 20 µM [1]	biological activity such as antiinflammatory or antibacterial or antifungal activity [2]	IC50 ([1]; NS5B BK strain, read-out: HCV pol BK IC50)
CCOC(=O)CC1(CC(=O)O)OCCc2c1sc1ccccc21 (stereo not drawn) [Example 19, [1-(2-ethoxy-2-oxoethyl)-3,4-dihydro-1H-[1]benzothieno[2,3-c]pyran-1-yl]acetic acid]	> 20000 nM	< 10%	–	–
CCCC1(CC(=O)O)OCCc2c1sc1c(C)ccc(C#N)c21 (stereo not drawn) [Example 2, (5-cyano-8-methyl-1-propyl-3,4-dihydro-1H-[1]benzothieno[2,3-c]pyran-1-yl)acetic acid]	17700 nM	–	–	–
CCCC1(CC(=O)O)OCCc2c1sc1c(Cl)ccc(Cl)c21 (stereo not drawn) [Example 5, (5,8-dichloro-1-propyl-3,4-dihydro-1H-[1]benzothieno[2,3-c]pyran-1-yl)acetic acid]	> 20000 nM	< 10%	–	–
CCCC1(CC(=O)O)OCCc2c1sc1ccccc21 (stereo not drawn) [Example 15, (1-propyl-3,4-dihydro-1H-[1]benzothieno[2,3-c]pyran-1-yl)acetic acid]	> 20000 nM	< 10%	–	–
O=C(O)CC1(c2ccccc2)OCCc2c1sc1ccccc21 (stereo not drawn) [Example 17, (1-phenyl-3,4-dihydro-1H-[1]benzothieno[2,3-c]pyran-1-yl)acetic acid]	> 20000 nM	27%	–	–
CCC1(CC(=O)O)OCCc2c1sc1c(Cl)ccc(Cl)c21 (stereo not drawn) [Example 8, (5,8-dichloro-1-ethyl-3,4-dihydro-1H-[1]benzothieno[2,3-c]pyran-1-yl)acetic acid]	170 nM	–	–	–
CCCC1(CC(=O)O)OCCc2c1sc1c(C)ccc(Br)c21 (stereo not drawn) [Example 1, (5-bromo-8-methyl-1-propyl-3,4-dihydro-1H-[1]benzothieno[2,3-c]pyran-1-yl)acetic acid]	180 nM	–	–	–
CCC[C@@]1(CC(=O)O)OCCc2c1sc1c(C)ccc(C#N)c21 [Example 4, [(1S)-5-cyano-8-methyl-1-propyl-3,4-dihydro-1H-[1]benzothieno[2,3-c]pyran-1-yl]acetic acid]	1900 nM	–	–	–
CCC1(CC(=O)O)OCCc2c1sc1ccccc21 (stereo not drawn) [Example 14, (1-ethyl-3,4-dihydro-1H-[1]benzothieno[2,3-c]pyran-1-yl)acetic acid]	> 20000 nM	< 10%	–	–
CC(C)C1(CC(=O)O)OCCc2c1sc1ccccc21 (stereo not drawn) [Example 18, (1-isopropyl-3,4-dihydro-1H-[1]benzothieno[2,3-c]pyran-1-yl)acetic acid]	> 20000 nM	< 10%	–	–
CCCC1(CC(=O)O)OCCc2c1sc1c(C)cc(F)c(C#N)c21 (stereo not drawn) [Example 10, (5-cyano-6-fluoro-8-methyl-1-propyl-3,4-dihydro-1H-[1]benzothieno[2,3-c]pyran-1-yl)acetic acid]	130 nM	–	–	–
CC1(CC(=O)O)OCCc2c1sc1ccccc21 (stereo not drawn) [Example 13, (1-methyl-3,4-dihydro-1H-[1]benzothieno[2,3-c]pyran-1-yl)acetic acid]	> 20000 nM	< 10%	–	–
CC1(c2ccc(CC(=O)O)cc2)OCCc2c1sc1ccccc21 (stereo not drawn) [[p-(3,4-dihydro-1-methyl-1H-[1]benzothieno[2,3-c]pyran-1-yl)phenyl]-acetic acid]	–	–	lacks any biological activity	–
CCCC1(CC(=O)O)OCCc2c1sc1c(C)cc(F)cc21 (stereo not drawn) [Example 9, (6-fluoro-8-methyl-1-propyl-3,4-dihydro-1H-[1]benzothieno[2,3-c]pyran-1-yl)acetic acid]	2900 nM	–	–	–
CCC[C@@]1(CC(=O)O)OCCc2c1sc1c(C)cc(F)c(C#N)c21 [Example 12, [(1S)-5-cyano-6-fluoro-8-methyl-1-propyl-3,4-dihydro-1H-[1]benzothieno[2,3-c]pyran-1-yl]acetic acid]	5400 nM	–	–	–
CCCCC1(CC(=O)O)OCCc2c1sc1c(Cl)ccc(Cl)c21 (stereo not drawn) [Example 7, (1-butyl-5,8-dichloro-3,4-dihydro-1H-[1]benzothieno[2,3-c]pyran-1-yl)acetic acid]	320 nM	–	–	–
CCC[C@]1(CC(=O)O)OCCc2c1sc1c(C)ccc(C#N)c21 [Example 3, [(1R)-5-cyano-8-methyl-1-propyl-3,4-dihydro-1H-[1]benzothieno[2,3-c]pyran-1-yl]acetic acid]	620 nM	–	–	–
CC1(CC(=O)O)OCCc2c1sc1c(Cl)ccc(Cl)c21 (stereo not drawn) [Example 6, (5,8-chloro-1-methyl-3,4-dihydro-1H-[1]benzothieno[2,3-c]pyran-1-yl)acetic acid]	–	–	–	280 nM
CCCCC1(CC(=O)O)OCCc2c1sc1ccccc21 (stereo not drawn) [Example 16, (1-butyl-3,4-dihydro-1H-[1]benzothieno[2,3-c]pyran-1-yl)acetic acid]	> 20000 nM	< 10%	–	–

— patent publication US20070276030A1, “Pyranobenzothiophene derivatives to treat infection with hepatitis c virus” (priority 2003, published 2007)
